Columns and labels:
BALB/C mice = test: In vivo imaging of protein expressed by LNP-carrying Fluc-mRNA in mice; details: for Average radiation intensity: female BALB/C mice; for average radiation intensity, times that of N-7413: ratio to N-7413; for average radiation intensity, times that of YK-CAP-001: ratio to YK-CAP-001; for average radiation intensity, times that of YK-CAP-002: ratio to YK-CAP-002; for average radiation intensity, times that of compound 14: ratio to compound 14; for average radiation intensity, times that of m6A: ratio to m6A
Procedure: The LNP preparation containing […] of Fluc-mRNAs transcribed using the cap analogs YK-CAP-001 to 006 in the present disclosure and the cap analogs N-7413, compound 14, and m6A in the prior art was intramuscularly injected into female BALB/C mice aged 4 to 6 weeks and weighing 17 to 19 g. At specific time points after administration (6 hours, 12 hours, 24 hours, 48 hours, 96 hours, and 168 hours), the mice were intraperitoneally injected with fluorescence imaging substrate. The mice were then allowed to move freely for 5 minutes, followed by detection of the average radiation intensity (corresponding to the amount of protein expression) of the protein expressed by LNP-carrying mRNA in the mice using an IVIS Spectrum small-animal in vivo imaging system.

T7 RNA polymerase [1] = molecular target: T1, T7 RNA polymerase (Escherichia phage T7, UniProt P00573); test: In vitro transcription yield of mRNA with cap analog (co-transcriptional capping); type: biochemical; details: for Yield per unit template: in vitro transcription, 1 μg DNA template, 20 μL system, 37° C. 2 hours; for transcription yield higher than that of compound 14: relative to compound 14
Procedure: (1) Capping synthesis using cap analogs
The plasmid was first linearized with plasmid linearizing enzyme, and then the linearized plasmid was purified.
(2) In vitro transcription and synthesis of mRNA
(§1) YK-CAP-001 to 006 and compound 14 in Table 1 were respectively used as cap analogs.
(§2) During the experiment, the volume of materials required for the system was first calculated, and then sample addition was conducted. The system was first added with sterile enzyme-free water, followed by the sequential addition of 10× buffer, NTPs, and cap analogs, mixed well, and gently centrifuged. Nuclease inhibitors, inorganic pyrophosphatase, T7 RNA polymerase, and linearized DNA templates were then added thereto. The system was mixed well, gently centrifuged, and incubated at 37° C. After 2 hours of incubation, the system was added with 1 U of DNase I and incubated at 37° C. for another 30 minutes. The mRNA precipitate was then washed with 75% ethanol, and after the ethanol was briefly evaporated to dryness, the mRNA was redissolved in sterile enzyme-free water.
(3) The transcription product was purified, and the in vitro transcription yield of mRNA was recorded.

HEK293T cells = test: Translation efficiency of capped luciferase mRNAs; type: cell-based; details: for relative fluorescence intensity, times that of HN3002: ratio to HN3002; for relative fluorescence intensity, times that of N-7413: ratio to N-7413; for relative fluorescence intensity, times that of YK-CAP-001: ratio to YK-CAP-001; for relative fluorescence intensity, times that of YK-CAP-002: ratio to YK-CAP-002; for relative fluorescence intensity, times that of m6A: ratio to m6A
Procedure: (1) HEK293T cells were cultured in DMEM medium containing 10% FBS and penicillin/streptomycin at 37° C. with 5% CO2.
(2) Cells in the culture dish were digested and counted, then spread in a 96-well plate at 10,000 cells per well, and cultured overnight until the cells adhered to the wall.
(3) When the cell density reached approximately 80%, transfection was performed by adding 0.5 μg of mRNA sample and Lipofectamine MessengerMAX Transfection Reagent (Invitrogen) per well according to the manufacturer's instructions.
(4) After the transfected cells were cultured at 37° C. with 5% CO2 for 24 hours, the growth medium was removed from the cells to be tested, and the cells were rinsed with PBS. After centrifugation to remove PBS, 50 μL of 1× lysis buffer was added. The cells and all liquid were transferred to a microcentrifuge tube and centrifuged.
(5) 20 μL of sample was taken and added to 100 μL of Dual-Lumi™ II Luciferase Assay Reagent pre-equilibrated to room temperature, and mixed appropriately.
(6) The mixture was incubated at room temperature (approximately 25° C.) for 5 minutes to stabilize the luminescence signal. Chemiluminescence was detected using a multifunctional microplate reader with a function for detecting chemiluminescence, and the data were recorded.

T7 RNA polymerase [2] = molecular target: T1, T7 RNA polymerase; test: Capping rate of in vitro transcribed mRNA by LC-MS; type: biochemical; details: for capping rate higher than that of compound 14: difference to compound 14
Procedure: as §1, §2
(4) The obtained mRNA was subjected to an annealing reaction with a probe.
The annealing reaction was performed in a PCR instrument: 95° C. for 5 minutes; 65° C. for 2 minutes; 55° C. for 2 minutes; 40° C. for 2 minutes; 22° C. for 2 minutes.
(5) Magnetic bead pretreatment and probe binding: 100 μL of magnetic beads was placed on a magnetic frame for pretreatment. The magnetic bead solution was added with 120 μL of sample and incubated at room temperature for 30 minutes with slow mixing.
(6) mRNA splicing and obtaining the 5′ single-strand sequence bound to the probe
The mixture was added with 20 μL of RNase H (5 U/μL) and incubated at 37° C. for 3 hours with mixing every half hour. After incubation, the magnetic beads were washed and then added with 100 μL of 75% methanol heated to 80° C. The mixture was heated to 80° C. on a heating plate, held for 3 minutes, then placed on a magnetic frame to aspirate the supernatant, and dried at room temperature for 45 minutes to a volume of 10 μL using a centrifugal evaporator. The sample was then resuspended in 50 μL of 100 μM EDTA/1% MeOH and ready for LC-MS analysis to determine the capping of RNA in the transcription reaction. Since there is a significant difference in molecular weight between capped and uncapped bases, the capping rate of mRNA transcription initiated by different cap analogs can be determined based on the difference in molecular mass.

[3] = 6 h after intramuscular injection of LNP Fluc-mRNA
[4] = 12 h after intramuscular injection of LNP Fluc-mRNA
[5] = 24 h after intramuscular injection of LNP Fluc-mRNA
[6] = 48 h after intramuscular injection of LNP Fluc-mRNA
[7] = 96 h after intramuscular injection of LNP Fluc-mRNA
[8] = 168 h after intramuscular injection of LNP Fluc-mRNA

T1 sequence (P00573 whole entry): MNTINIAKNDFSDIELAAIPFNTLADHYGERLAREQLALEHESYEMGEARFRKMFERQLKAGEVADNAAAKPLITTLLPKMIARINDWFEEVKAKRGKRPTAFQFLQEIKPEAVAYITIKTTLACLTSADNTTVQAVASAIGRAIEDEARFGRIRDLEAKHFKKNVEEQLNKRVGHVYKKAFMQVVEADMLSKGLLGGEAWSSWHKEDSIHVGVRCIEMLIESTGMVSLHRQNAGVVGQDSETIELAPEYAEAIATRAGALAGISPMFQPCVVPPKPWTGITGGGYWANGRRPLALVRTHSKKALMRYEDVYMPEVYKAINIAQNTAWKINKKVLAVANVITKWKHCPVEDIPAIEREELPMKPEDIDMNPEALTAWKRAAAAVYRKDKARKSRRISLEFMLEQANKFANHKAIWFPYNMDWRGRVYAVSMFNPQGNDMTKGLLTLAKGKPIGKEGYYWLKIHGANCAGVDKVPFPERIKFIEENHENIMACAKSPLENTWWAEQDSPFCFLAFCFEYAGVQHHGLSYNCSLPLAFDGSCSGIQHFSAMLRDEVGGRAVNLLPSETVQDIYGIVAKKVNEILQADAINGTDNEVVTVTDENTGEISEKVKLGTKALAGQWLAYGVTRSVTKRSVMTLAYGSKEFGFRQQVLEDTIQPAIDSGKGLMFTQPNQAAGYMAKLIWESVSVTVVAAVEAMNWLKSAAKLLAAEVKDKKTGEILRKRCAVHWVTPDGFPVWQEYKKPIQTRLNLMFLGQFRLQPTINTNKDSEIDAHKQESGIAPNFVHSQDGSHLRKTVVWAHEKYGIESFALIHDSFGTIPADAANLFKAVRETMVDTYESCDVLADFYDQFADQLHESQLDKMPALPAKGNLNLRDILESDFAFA

SMILES: COC1C(OP(=O)([O-])OC[C@H]2O[C@@H](n3cnc4c(=O)[nH]c(N)nc43)C(O)C2O)[C@@H](COP(=O)(O)OP(=O)(O)OP(=O)(O)OC[C@]23O[C@@H]([n+]4cn(C)c5c(=O)[nH]c(N)nc54)C(O[C@H]2CC(=O)N(C)C)C3O)O[C@H]1n1cnc2c(N)ncnc21 (some centres unmarked) [YK-CAP-003]
- Average radiation intensity (BALB/C mice; [3]): 3212750 p/s/cm^2/sr
- Average radiation intensity (BALB/C mice; [4]): 2454750 p/s/cm^2/sr
- Average radiation intensity (BALB/C mice; [5]): 1053625 p/s/cm^2/sr
- Average radiation intensity (BALB/C mice; [6]): 700200 p/s/cm^2/sr
- Average radiation intensity (BALB/C mice; [7]): 57893 p/s/cm^2/sr
- Average radiation intensity (BALB/C mice; [8]): 19016 p/s/cm^2/sr
- average radiation intensity, times that of N-7413 (BALB/C mice; at 6 hours): 1.2 times
- average radiation intensity, times that of YK-CAP-001 (BALB/C mice; at 6 hours): 1.9 times
- average radiation intensity, times that of YK-CAP-002 (BALB/C mice; at 6 hours): 2.2 times
- average radiation intensity, times that of compound 14 (BALB/C mice; at 6 hours): 1.2 times
- average radiation intensity, times that of m6A (BALB/C mice; at 6 hours): 1.8 times
- average radiation intensity, times that of N-7413 (BALB/C mice; at 96 hours): 0.8 times
- average radiation intensity, times that of YK-CAP-001 (BALB/C mice; at 96 hours): 1.3 times
- average radiation intensity, times that of YK-CAP-002 (BALB/C mice; at 96 hours): 2.8 times
- average radiation intensity, times that of compound 14 (BALB/C mice; at 96 hours): 1.0 times
- average radiation intensity, times that of m6A (BALB/C mice; at 96 hours): 1.7 times
- Yield per unit template (T7 RNA polymerase [1]): 151.0 µg
- transcription yield higher than that of compound 14 (T7 RNA polymerase [1]): 24.9%
- relative fluorescence intensity, times that of HN3002 (HEK293T cells): 1.1 times
- relative fluorescence intensity, times that of N-7413 (HEK293T cells): 1.2 times
- relative fluorescence intensity, times that of YK-CAP-001 (HEK293T cells): 1.6 times
- relative fluorescence intensity, times that of YK-CAP-002 (HEK293T cells): 1.8 times
- relative fluorescence intensity, times that of m6A (HEK293T cells): 3.5 times
- capping rate higher than that of compound 14 (T7 RNA polymerase [2]): 17.3%

SMILES: COC1C(OP(=O)([O-])OC[C@H]2O[C@@H](n3cnc4c(=O)[nH]c(N)nc43)C(O)C2O)[C@@H](COP(=O)(O)OP(=O)(O)OP(=O)(O)OC[C@]23O[C@@H]([n+]4cn(C)c5c(=O)[nH]c(N)nc54)C(O[C@H]2CC(F)F)C3O)O[C@H]1n1cnc2c(N)ncnc21 (some centres unmarked) [YK-CAP-004]
- Average radiation intensity (BALB/C mice; [3]): 3856100 p/s/cm^2/sr
- Average radiation intensity (BALB/C mice; [4]): 2836750 p/s/cm^2/sr
- Average radiation intensity (BALB/C mice; [5]): 1159325 p/s/cm^2/sr
- Average radiation intensity (BALB/C mice; [6]): 903025 p/s/cm^2/sr
- Average radiation intensity (BALB/C mice; [7]): 114933 p/s/cm^2/sr
- Average radiation intensity (BALB/C mice; [8]): 19785 p/s/cm^2/sr
- average radiation intensity, times that of N-7413 (BALB/C mice; at 6 hours): 1.4 times
- average radiation intensity, times that of YK-CAP-001 (BALB/C mice; at 6 hours): 2.2 times
- average radiation intensity, times that of YK-CAP-002 (BALB/C mice; at 6 hours): 2.6 times
- average radiation intensity, times that of compound 14 (BALB/C mice; at 6 hours): 1.5 times
- average radiation intensity, times that of m6A (BALB/C mice; at 6 hours): 2.1 times
- average radiation intensity, times that of N-7413 (BALB/C mice; at 96 hours): 1.7 times
- average radiation intensity, times that of YK-CAP-001 (BALB/C mice; at 96 hours): 2.6 times
- average radiation intensity, times that of YK-CAP-002 (BALB/C mice; at 96 hours): 5.5 times
- average radiation intensity, times that of compound 14 (BALB/C mice; at 96 hours): 2.0 times
- average radiation intensity, times that of m6A (BALB/C mice; at 96 hours): 3.4 times
- Yield per unit template (T7 RNA polymerase [1]): 163.2 µg
- transcription yield higher than that of YK-CAP-001 (T7 RNA polymerase [1]; relative to YK-CAP-001): 82.8%
- transcription yield higher than that of YK-CAP-002 (T7 RNA polymerase [1]; relative to YK-CAP-002): 58.3%
- transcription yield higher than that of compound 14 (T7 RNA polymerase [1]): 35.0%
- relative fluorescence intensity, times that of HN3002 (HEK293T cells): 1.2 times
- relative fluorescence intensity, times that of N-7413 (HEK293T cells): 1.4 times
- relative fluorescence intensity, times that of YK-CAP-001 (HEK293T cells): 1.8 times
- relative fluorescence intensity, times that of YK-CAP-002 (HEK293T cells): 2.0 times
- relative fluorescence intensity, times that of m6A (HEK293T cells): 4.0 times
- capping rate higher than that of YK-CAP-001 (T7 RNA polymerase [2]; difference to YK-CAP-001): 23.2%
- capping rate higher than that of YK-CAP-002 (T7 RNA polymerase [2]; difference to YK-CAP-002): 26.1%
- capping rate higher than that of compound 14 (T7 RNA polymerase [2]): 18.8%
- Capping rate (T7 RNA polymerase [2]; mRNA transcribed with the cap analog, LC-MS): 96.3%

SMILES: COC1C(OP(=O)([O-])OC[C@H]2O[C@@H](n3cnc4c(=O)[nH]c(N)nc43)C(O)C2O)[C@@H](COP(=O)(O)OP(=O)(O)OP(=O)(O)OC[C@]23O[C@@H]([n+]4cn(C)c5c(=O)[nH]c(N)nc54)C(O[C@H]2CCS(C)(=O)=O)C3O)O[C@H]1n1cnc2c(N)ncnc21 (some centres unmarked) [YK-CAP-005]
- Average radiation intensity (BALB/C mice; [3]): 3171000 p/s/cm^2/sr
- Average radiation intensity (BALB/C mice; [4]): 2497200 p/s/cm^2/sr
- Average radiation intensity (BALB/C mice; [5]): 998650 p/s/cm^2/sr
- Average radiation intensity (BALB/C mice; [6]): 834250 p/s/cm^2/sr
- Average radiation intensity (BALB/C mice; [7]): 110595 p/s/cm^2/sr
- Average radiation intensity (BALB/C mice; [8]): 17807 p/s/cm^2/sr
- average radiation intensity, times that of N-7413 (BALB/C mice; at 6 hours): 1.1 times
- average radiation intensity, times that of YK-CAP-001 (BALB/C mice; at 6 hours): 1.8 times
- average radiation intensity, times that of YK-CAP-002 (BALB/C mice; at 6 hours): 2.2 times
- average radiation intensity, times that of compound 14 (BALB/C mice; at 6 hours): 1.2 times
- average radiation intensity, times that of m6A (BALB/C mice; at 6 hours): 1.8 times
- average radiation intensity, times that of N-7413 (BALB/C mice; at 96 hours): 1.6 times
- average radiation intensity, times that of YK-CAP-001 (BALB/C mice; at 96 hours): 2.5 times
- average radiation intensity, times that of YK-CAP-002 (BALB/C mice; at 96 hours): 5.3 times
- average radiation intensity, times that of compound 14 (BALB/C mice; at 96 hours): 1.9 times
- average radiation intensity, times that of m6A (BALB/C mice; at 96 hours): 3.3 times
- Yield per unit template (T7 RNA polymerase [1]): 152.6 µg
- transcription yield higher than that of compound 14 (T7 RNA polymerase [1]): 26.2%
- relative fluorescence intensity, times that of HN3002 (HEK293T cells): 1.1 times
- relative fluorescence intensity, times that of N-7413 (HEK293T cells): 1.3 times
- relative fluorescence intensity, times that of YK-CAP-001 (HEK293T cells): 1.6 times
- relative fluorescence intensity, times that of YK-CAP-002 (HEK293T cells): 1.9 times
- relative fluorescence intensity, times that of m6A (HEK293T cells): 3.7 times
- capping rate higher than that of compound 14 (T7 RNA polymerase [2]): 17.7%
